Laboratory results reported in article PMC7367283, “A PIP2 substitute mediates voltage sensor-pore coupling in KCNQ activation” (Communications Biology, 2020).

Target: CaV1.2 (Homo sapiens, UniProt Q13936)
Experiment: Two-electrode voltage clamp of CaV1.2 in Xenopus oocytes
Assay type: cell-based
Conditions: 10 µM CP1
Text: Since CP1 has a similar effect to PIP2 in mediating VSD-pore coupling in KCNQ channels, we tested if CP1 has effects on other ion channels that are also sensitive to PIP2 or are voltage activated and share general structural features of the VSD and the pore with KCNQ. […] On the other hand, NaV1.5 and KV4.2 are voltage-gated ion channels.
Fig. 6 Effects of CP1 on other ion channels expressed in Xenopus oocytes. a Currents of Kir1.1, CaV1.2, NaV1.5, hERG, and KV4.2 before and after application of 10 µM CP1, respectively. The voltages for holding, test, and returning pulses were Kir1.1, 0 mV, −100 to +60 mV, 0; CaV1.2, −100 mV, −100 to +60, −100 mV; NaV1.5, −100, −120 to +40 mV, −120 mV; hERG, −80 mV, −90 to +60 mV, −60 mV; KV4.2, −80 mV, −100 mV to +80 mV, −40 mV; HCN4, −30 mV, −30 to −140 mV, −120 mV. b Current–voltage relations of Kir1.1 channel in the absence or presence of 10 µM CP1 (n = 7). c–g G–V relations of indicated channels with and without 10 µM CP1. The ΔV1/2 of G–V relations (mV) are CaV1.2, 3.38 ± 0.71 mV (c); NaV1.5, −2.26 ± 0.95 mV (d); hERG, 6.85 ± 1.81 mV (e); KV 4.2, −2.26 ± 2.88 mV (f); HCN4, 17.13 ± 1.59 mV (g).
Complementary DNA (cDNA) encoding human KCNQ1 (UniProtKB/Swiss‐Prot under accession no. P51787), KCNQ2 (O43526), KCNQ3 (O43525), KCNE1 (P15382), Kir1.1 (P48048), hERG (Q12809), KV4.2 (Q63881), NaV1.5 (Q14524), NaV β1 (Q07699), CaV1.2 (Q13936), CaV β1a (Q02641), CaV α2/δ1 (P54289), and HCN4 (Q9Y3Q4) were subcloned into oocyte expression vectors, respectively. Site-directed mutations of the KCNQ1 channel were all produced by overlap extension polymerase chain reaction (PCR) with high-fidelity Pfu polymerase (Stratagene, CA). The presence of the desired mutation was verified by sequencing the PCR-amplified regions. All the primer sequences used in this study are available in Supplementary Table 1. The complementary RNA (cRNA) of all these channels and mutations was transcribed in vitro with the T3, T7, or SP6 polymerase mMessage mMachine kit (Invitrogen, Thermo Fisher Scientific, MO).
The use of Xenopus laevis to obtain oocytes was approved by the Washington University Animal Studies Committee (protocol #20190030). Oocytes were manually dispersed and digested with collagenase (0.5 mg/ml, Sigma-Aldrich, Saint Louis, MO) to remove the follicle cell layer. Stage V or VI oocytes were selected and injected with cRNAs (9.2 ng) of channel or mutations. Especially, to characterize IKs, a mix of cRNAs at a molar ratio 4:1 (KCNQ1:KCNE1) was injected. For KCNQ2/KCNQ3, the molar ratio was 1:1 (KCNQ2:KCNQ3). For sodium channels, a 3:1 molar ratio (β1:NaV1.5) and for calcium channels a weight ratio 1:1:1 (β1:α2/δ1:CaV1.2) was injected, respectively. Injected oocytes were incubated in ND96 solution containing (in mM) 96 NaCl, 2 KCl, 1.8 CaCl2, 1 MgCl2, and 5 HEPES, pH 7.6, supplemented with 2.5 mM Na pyruvate and 1% penicillin–streptomycin, at 18 °C for 3–7 days before recording.
The whole-oocyte ionic currents were recorded with a GeneClamp 500B amplifier (Axon Instruments, CA) or iTEV90 amplifier (HEKA, Germany) and then sampled at 1 kHz and low-pass-filtered at 2 kHz. The Patchmaster software (HEKA, Germany) was used to acquire data. The Kir1.1 current was recorded with a high K^+ bath solution containing (in mM) 96 KCl, 4 NaCl, 1 CaCl2, 2 MgCl2, and 10 HEPES, pH 7.3–7.4. The HCN4 current was recorded in ND66 solution containing (in mM) 66 NaCl, 32 KCl, 1.8 CaCl2, 1 MgCl2, and 5 HEPES, pH 7.6. All the other potassium channels were recorded in ND96 solution. The currents of CaV1.2 channel were recorded in 40 mM Ba^2+ bath solution containing (in mM) 40 Ba(OH)2, 50 TEA-OH, 2 KOH, and 5 HEPES, adjusted to pH 7.4 with methanesulfonic acid. CP1 (DISODIUM 5-BROMO-2-[9-CHLORO-3-(SULFONATOOXY) NAPHTHO [1,2-B] THIEN-2-YL]-1H-INDOL-3-YL SULFATE, Sigma-Aldrich, MO) and Chromanol 293B (Sigma-Aldrich, MO) were dissolved in bath solutions. All the chemicals were purchased from Sigma-Aldrich. […]

Chain of CaV1.2 (Q13936 whole entry): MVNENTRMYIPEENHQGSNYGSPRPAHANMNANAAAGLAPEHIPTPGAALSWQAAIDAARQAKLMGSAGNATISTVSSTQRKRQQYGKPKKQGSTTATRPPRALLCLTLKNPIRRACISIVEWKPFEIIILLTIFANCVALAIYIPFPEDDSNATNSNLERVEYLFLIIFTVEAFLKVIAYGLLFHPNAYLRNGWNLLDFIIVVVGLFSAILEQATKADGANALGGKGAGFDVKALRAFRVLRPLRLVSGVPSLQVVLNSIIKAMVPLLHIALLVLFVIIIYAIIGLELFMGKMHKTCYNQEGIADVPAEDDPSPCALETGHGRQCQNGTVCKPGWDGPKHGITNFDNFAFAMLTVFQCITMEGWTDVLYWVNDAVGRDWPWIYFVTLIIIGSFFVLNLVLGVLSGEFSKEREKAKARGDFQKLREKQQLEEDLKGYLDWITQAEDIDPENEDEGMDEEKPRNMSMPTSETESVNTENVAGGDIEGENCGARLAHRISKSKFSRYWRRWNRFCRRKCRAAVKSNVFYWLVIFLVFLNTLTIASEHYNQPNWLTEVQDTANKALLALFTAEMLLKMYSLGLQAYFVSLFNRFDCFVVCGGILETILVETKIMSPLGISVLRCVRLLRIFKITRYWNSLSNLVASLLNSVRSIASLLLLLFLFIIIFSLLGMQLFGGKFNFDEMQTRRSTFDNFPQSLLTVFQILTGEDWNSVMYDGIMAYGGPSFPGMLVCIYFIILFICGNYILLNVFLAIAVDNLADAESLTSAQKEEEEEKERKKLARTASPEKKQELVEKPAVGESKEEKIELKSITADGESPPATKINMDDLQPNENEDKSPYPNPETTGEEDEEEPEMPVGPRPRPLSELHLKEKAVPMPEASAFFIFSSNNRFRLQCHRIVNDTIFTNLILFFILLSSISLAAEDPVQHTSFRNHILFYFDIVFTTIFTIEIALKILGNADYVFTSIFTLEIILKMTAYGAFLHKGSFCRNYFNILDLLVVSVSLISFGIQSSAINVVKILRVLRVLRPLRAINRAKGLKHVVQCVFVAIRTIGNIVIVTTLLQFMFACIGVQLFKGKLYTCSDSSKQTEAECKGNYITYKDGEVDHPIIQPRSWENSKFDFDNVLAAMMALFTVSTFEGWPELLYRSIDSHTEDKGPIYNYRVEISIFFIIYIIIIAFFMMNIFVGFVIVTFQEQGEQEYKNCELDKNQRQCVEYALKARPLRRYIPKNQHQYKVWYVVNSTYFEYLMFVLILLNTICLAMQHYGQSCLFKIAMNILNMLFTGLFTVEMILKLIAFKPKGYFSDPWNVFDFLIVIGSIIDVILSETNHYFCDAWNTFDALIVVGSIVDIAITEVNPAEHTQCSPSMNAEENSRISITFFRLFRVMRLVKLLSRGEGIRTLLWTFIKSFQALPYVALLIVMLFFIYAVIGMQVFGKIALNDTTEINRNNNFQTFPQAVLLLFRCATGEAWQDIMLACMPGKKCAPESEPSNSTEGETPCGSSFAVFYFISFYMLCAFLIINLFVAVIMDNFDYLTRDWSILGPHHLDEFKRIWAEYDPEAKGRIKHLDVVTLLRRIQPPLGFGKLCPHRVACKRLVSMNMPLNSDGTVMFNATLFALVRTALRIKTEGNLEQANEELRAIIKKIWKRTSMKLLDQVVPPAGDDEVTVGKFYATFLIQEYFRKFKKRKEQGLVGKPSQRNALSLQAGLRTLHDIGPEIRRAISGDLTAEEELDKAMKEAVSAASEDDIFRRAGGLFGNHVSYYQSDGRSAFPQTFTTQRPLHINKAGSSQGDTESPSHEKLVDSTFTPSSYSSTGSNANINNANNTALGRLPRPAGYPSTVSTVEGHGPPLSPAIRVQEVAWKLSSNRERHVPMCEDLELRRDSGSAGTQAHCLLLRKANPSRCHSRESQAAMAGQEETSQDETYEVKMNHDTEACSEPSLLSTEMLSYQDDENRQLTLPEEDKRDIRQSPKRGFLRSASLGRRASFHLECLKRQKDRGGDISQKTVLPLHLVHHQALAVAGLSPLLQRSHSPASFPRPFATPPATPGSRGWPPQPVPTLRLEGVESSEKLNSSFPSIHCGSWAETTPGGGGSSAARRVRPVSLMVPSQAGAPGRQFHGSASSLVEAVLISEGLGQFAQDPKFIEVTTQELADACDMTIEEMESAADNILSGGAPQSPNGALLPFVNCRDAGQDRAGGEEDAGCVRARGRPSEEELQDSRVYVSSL
Chain of CaV1.2 (Q02641 1-523 isoform Q02641-2 partner): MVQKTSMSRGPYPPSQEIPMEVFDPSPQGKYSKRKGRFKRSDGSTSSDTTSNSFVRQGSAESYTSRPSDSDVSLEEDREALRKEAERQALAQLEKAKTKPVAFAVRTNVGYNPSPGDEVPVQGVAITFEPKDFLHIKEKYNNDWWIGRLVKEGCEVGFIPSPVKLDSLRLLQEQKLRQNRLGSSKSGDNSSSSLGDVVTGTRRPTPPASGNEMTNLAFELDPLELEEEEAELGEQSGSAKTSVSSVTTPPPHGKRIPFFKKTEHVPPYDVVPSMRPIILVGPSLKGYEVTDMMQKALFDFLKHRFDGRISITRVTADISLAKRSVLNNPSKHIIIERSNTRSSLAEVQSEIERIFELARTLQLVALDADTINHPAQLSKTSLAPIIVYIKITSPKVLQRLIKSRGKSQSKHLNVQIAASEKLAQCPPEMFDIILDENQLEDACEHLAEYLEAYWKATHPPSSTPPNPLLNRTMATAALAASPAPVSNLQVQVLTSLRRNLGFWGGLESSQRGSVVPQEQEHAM
Chain of CaV1.2 (P54289 25-956 partner limits assumed): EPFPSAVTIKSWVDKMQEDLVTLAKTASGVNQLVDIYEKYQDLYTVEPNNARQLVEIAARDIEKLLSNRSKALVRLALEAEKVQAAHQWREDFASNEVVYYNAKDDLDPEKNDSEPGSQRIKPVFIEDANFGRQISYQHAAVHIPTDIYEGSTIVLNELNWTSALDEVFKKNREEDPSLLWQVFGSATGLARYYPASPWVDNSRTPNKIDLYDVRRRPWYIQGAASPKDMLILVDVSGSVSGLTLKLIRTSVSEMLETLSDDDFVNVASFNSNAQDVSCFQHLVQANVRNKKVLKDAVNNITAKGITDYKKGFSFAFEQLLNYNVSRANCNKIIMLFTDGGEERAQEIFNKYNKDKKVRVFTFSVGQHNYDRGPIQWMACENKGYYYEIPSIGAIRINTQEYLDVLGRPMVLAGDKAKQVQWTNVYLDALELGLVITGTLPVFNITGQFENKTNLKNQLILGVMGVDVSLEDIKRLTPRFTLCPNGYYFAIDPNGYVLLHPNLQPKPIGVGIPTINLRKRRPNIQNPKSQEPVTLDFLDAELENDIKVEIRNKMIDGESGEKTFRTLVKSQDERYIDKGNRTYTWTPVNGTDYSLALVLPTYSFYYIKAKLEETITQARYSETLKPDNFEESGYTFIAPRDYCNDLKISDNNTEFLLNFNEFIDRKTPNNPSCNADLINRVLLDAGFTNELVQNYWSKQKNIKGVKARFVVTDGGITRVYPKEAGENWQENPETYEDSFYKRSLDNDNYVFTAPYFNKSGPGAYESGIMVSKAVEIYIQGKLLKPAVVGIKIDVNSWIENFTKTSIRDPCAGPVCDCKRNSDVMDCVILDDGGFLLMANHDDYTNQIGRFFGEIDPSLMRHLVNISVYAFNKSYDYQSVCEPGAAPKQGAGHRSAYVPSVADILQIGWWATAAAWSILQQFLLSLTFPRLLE
Chain of CaV1.2 (P54289 957-1103 partner limits assumed): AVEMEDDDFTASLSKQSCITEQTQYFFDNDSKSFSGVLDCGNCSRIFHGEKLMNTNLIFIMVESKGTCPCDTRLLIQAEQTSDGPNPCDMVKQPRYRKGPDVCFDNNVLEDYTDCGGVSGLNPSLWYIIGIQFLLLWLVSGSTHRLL

With `O=S(=O)([O-])Oc1c(-c2sc3c(ccc4cccc(Cl)c43)c2OS(=O)(=O)[O-])[nH]c2ccc(Br)cc12.[Na+].[Na+]` [CP1, DISODIUM 5-BROMO-2-[9-CHLORO-3-(SULFONATOOXY) NAPHTHO [1,2-B] THIEN-2-YL]-1H-INDOL-3-YL SULFATE] the “ΔV1/2 of G–V relations” value was 3.38 ± 0.71 mV, the “G/Gmax Mean (Fig. 6c)” value (voltage 0 mV) was 0.1903 and the “G/Gmax Mean (Fig. 6c)” value (voltage 10 mV) was 0.4214. The “G/Gmax Mean (Fig. 6c)” value (voltage 20 mV) was 0.7222, the “G/Gmax Mean (Fig. 6c)” value (voltage 30 mV) was 0.9242 and the “G/Gmax Mean (Fig. 6c)” value (voltage 40 mV) was 1.0000. The “G/Gmax Mean (Fig. 6c)” value (voltage -10 mV) was 0.0690, the “G/Gmax Mean (Fig. 6c)” value (voltage -20 mV) was 0.0228 and the “G/Gmax Mean (Fig. 6c)” value (voltage -30 mV) was 0.0102. The “G/Gmax Mean (Fig. 6c)” value (voltage -40 mV) was 0.0076, the “G/Gmax Mean (Fig. 6c)” value (voltage -50 mV) was 0.0080 and the “G/Gmax Mean (Fig. 6c)” value (voltage -60 mV) was 0.0090. The “G/Gmax Mean (Fig. 6c)” value (voltage -70 mV) was 0.0102, the “G/Gmax Mean (Fig. 6c)” value (voltage -80 mV) was 0.0108 and the “G/Gmax Mean (Fig. 6c)” value (voltage -90 mV) was 0.0176. For the same compound, the “G/Gmax Mean (Fig. 6c)” value (voltage -100 mV) was 0.0169.
